In ChEMBL document CHEMBL5352446, “Synthesis and biological evaluation of a novel c-Myc inhibitor against colorectal cancer via blocking c-Myc/Max heterodimerization and disturbing its DNA binding” (Eur J Med Chem, 2022):
Activity calls are given as the source filed them. The rule behind the calls is not given here.

Assays:
HT-29 [1] = assay: Induction of apoptosis in human HT-29 cells assessed as late apoptotic cells at 2.5 uM incubated for 24 hrs by FITC Annexin-V and PI staining based flow cytometry analysis (reference value: 0.78%); type: functional
HT-29 [2] = assay: Induction of apoptosis in human HT-29 cells assessed as upregulation of Bax expression incubated for 24 hrs by Western blot analysis; type: functional, cell-based; conditions: dose 2.5-10 µM
HT-29 [3] = assay: Induction of apoptosis in human HT-29 cells assessed as early apoptotic cells at 2.5 uM incubated for 24 hrs by FITC Annexin-V and PI staining based flow cytometry analysis (reference value: 2.15%); type: functional
HT-29 [4] = assay: Inhibition of cell migration in human HT-29 cells incubated for 48 hrs by wound healing analysis; type: functional, cell-based
HCT-116 [5] = assay: Inhibition of cell migration in human HCT-116 cells incubated for 48 hrs by wound healing analysis; type: functional, cell-based
HCT-116 [6] = assay: cells; conditions: Homo sapiens, HCT-116, 72 h
Description: Antiproliferative activity against human HCT-116 cells incubated for 72 hrs by MTT assay

HT-29 [7] = assay: Induction of apoptosis in human HT-29 cells assessed as upregulation of cleaved caspase 3 expression incubated for 24 hrs by Western blot analysis; type: functional, cell-based; conditions: dose 2.5-10 µM
HT-29 [8] = assay: Antitumor activity against human HT-29 cells xenografted in BALB/c mouse assessed as tumor growth inhibition at 80 mg/kg, ip administered daily for 3 weeks by caliper method; type: functional; conditions: HT-29, 504 h, read-out: TGI
HCT-116 [9] = assay: Downregulation of c-Myc expression in human HCT-116 cells incubated for 24 hrs by Western blot analysis; type: functional, cell-based; conditions: dose 2.5-10 µM
HT-29 [10] = assay: Antitumor activity against human HT-29 cells xenografted in ip dosed BALB/c mouse assessed as tumor growth inhibition administered daily for 3 weeks by caliper method; type: functional, organism-based; conditions: dose 40-80 mg/kg
L02 = assay: Cytotoxicity against human L02 cells incubated for 72 hrs by MTT assay; type: toxicity, cell-based; conditions: l02, 72 h
HT-29 [11] = assay: Downregulation of c-Myc expression in human HT-29 cells at 10 uM incubated for 24 hrs by Western blot analysis; type: functional, cell-based
HT-29 [12] = assay: Induction of apoptosis in human HT-29 cells assessed as viable cells at 2.5 uM incubated for 24 hrs by FITC Annexin-V and PI staining based flow cytometry analysis (reference value: 96.94%); type: functional; conditions: read-out: Activity
HT-29 [13] = assay: Inhibition of colony formation in human HT-29 cells measured after 14 days by crystal violet staining based assay; type: functional, cell-based; conditions: dose 0.25-2 µM, time 14.0 day
HT-29 [14] = assay: Induction of cell cycle arrest in human HT-29 cells assessed as accumulation of cells at G2 phase at 2.5 uM incubated for 24 hrs by propidium iodide staining based flow cytometry analysis (reference value: 16.33 %); type: functional
HT-29 [15] = assay: Induction of cell cycle arrest in human HT-29 cells assessed as accumulation of cells at G1 phase at 0.625 uM incubated for 24 hrs by propidium iodide staining based flow cytometry analysis (reference value: 65.37 %); type: functional
HT-29 [16] = assay: Induction of apoptosis in human HT-29 cells assessed as necrotic cells at 10 uM incubated for 24 hrs by FITC Annexin-V and PI staining based flow cytometry analysis (reference value: 0.13%); type: functional
HCT-15 = assay: Antiproliferative activity against human HCT-15 cells incubated for 72 hrs by MTT assay; type: functional, cell-based; conditions: HCT-15, 72 h
HT-29 [17] = assay: Induction of apoptosis in human HT-29 cells assessed as downregulation of Bcl-2 expression incubated for 24 hrs by Western blot analysis; type: functional, cell-based; conditions: dose 2.5-10 µM
HT-29 [18] = assay: Induction of cell cycle arrest in human HT-29 cells assessed as accumulation of cells at G1 phase at 5 uM incubated for 24 hrs by propidium iodide staining based flow cytometry analysis (reference value: 65.37 %); type: functional
HT-29 [19] = assay: Induction of cell cycle arrest in human HT-29 cells assessed as accumulation of cells at S phase at 5 uM incubated for 24 hrs by propidium iodide staining based flow cytometry analysis (reference value: 12.01 %); type: functional
HT-29 [20] = assay: Induction of apoptosis in human HT-29 cells assessed as late apoptotic cells at 10 uM incubated for 24 hrs by FITC Annexin-V and PI staining based flow cytometry analysis (reference value: 0.78%); type: functional
HT-29 [21] = assay: Induction of apoptosis in human HT-29 cells assessed as early apoptotic cells at 5 uM incubated for 24 hrs by FITC Annexin-V and PI staining based flow cytometry analysis (reference value: 2.15%); type: functional
[22] = Toxicity in BALB/c mouse xenografted with human HT-29 cells assessed as heart damage at 40 to 80 mg/kg, ip measured after 21 days by H and E staining based assay; type: organism-based; conditions: in vivo, 504 h, dose 40-80 mg/kg, time 21 day
HT-29 [23] = assay: Induction of cell cycle arrest in human HT-29 cells assessed as accumulation of cells at G2 phase at 0.625 uM incubated for 24 hrs by propidium iodide staining based flow cytometry analysis (reference value: 16.33 %); type: functional
HT-29 [24] = assay: Induction of apoptosis in human HT-29 cells assessed as necrotic cells at 0.625 uM incubated for 24 hrs by FITC Annexin-V and PI staining based flow cytometry analysis (reference value: 0.13%); type: functional
HCT-116 [25] = assay: Inhibition of colony formation in human HCT-116 cells measured after 14 days by crystal violet staining based assay; type: functional, cell-based; conditions: dose 0.25-2 µM, time 14.0 day
HT-29 [26] = assay: Induction of cell cycle arrest in human HT-29 cells assessed as accumulation of cells at G2 phase at 1.25 uM incubated for 24 hrs by propidium iodide staining based flow cytometry analysis (reference value: 16.33 %); type: functional
HT-29 [27] = assay: Induction of cell cycle arrest in human HT-29 cells assessed as accumulation of cells at G1 phase at 2.5 uM incubated for 24 hrs by propidium iodide staining based flow cytometry analysis (reference value: 65.37 %); type: functional
HT-29 [28] = assay: Induction of apoptosis in human HT-29 cells assessed as necrotic cells at 1.25 uM incubated for 24 hrs by FITC Annexin-V and PI staining based flow cytometry analysis (reference value: 0.13%); type: functional

IC50 (HCT-116 [6]): 640 nM
IC50 (HCT-15): 2340 nM
Structure (SMILES): COc1cc(Oc2ccc(Nc3ccc(CCCO)cc3)cc2)cc(OC)c1CNCCc1ccc(C(F)(F)F)cc1
Activity (HT-29 [1]): 7.03%
Activity (HT-29 [2]): Dose-Dependent Effect
Activity (HT-29 [3]): 19.39%
inhibition (HT-29 [4]): Active
inhibition (HCT-116 [5]): Active
Activity (HT-29 [7]): Dose-Dependent Effect
inhibition in vivo at 80 mg/kg (HT-29 [8]): 78.4%
Activity (HCT-116 [9]): Dose-Dependent Effect
Activity (HT-29 [10]): Dose-Dependent Effect
Activity (L02): Non-Toxic
Activity (HT-29 [11]): Active
viability at 2.5 µM (HT-29 [12]): 69.6%
inhibition (HT-29 [13]): Dose-Dependent Effect
Activity (HT-29 [14]): 8.23%
Activity (HT-29 [15]): 71.78%
Activity (HT-29 [16]): 1.87%
Activity (HT-29 [17]): Dose-Dependent Effect
Activity (HT-29 [18]): 76.86%
Activity (HT-29 [19]): 12.16%
Activity (HT-29 [20]): 13.52%
Activity (HT-29 [21]): 22.05%
Activity [22]: Non-Toxic
Activity (HT-29 [23]): 11.95%
Activity (HT-29 [24]): 1.44%
inhibition (HCT-116 [25]): Dose-Dependent Effect
Activity (HT-29 [26]): 11.24%
Activity (HT-29 [27]): 75.57%
Activity (HT-29 [28]): 1.72%
